Experimental data reported in ChEMBL document CHEMBL1201862, “PubChem BioAssay data set” (2004).
Active and inactive are the calls of the source.

Experiments:
Large T antigen = Large T antigen (Simian virus 40, UniProt P03070); format: functional, Betapolyomavirus macacae;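 note: Confirmatory-stage PubChem screen for compounds that inhibit SV40 T antigen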
[1] = molecular target: T1, Polyadenylate-binding protein 1 (Homo sapiens, UniProt P11940); assay: PABP1 MLLE–PAM2 binding inhibitor potency, dose response, biochemical, fluorescence polarization, FITC-PAM2 peptide (AID 602259); format: functional; conditions: read-out: IC50_Mean
Genome polyprotein = Genome polyprotein (dengue virus type 2, UniProt P29990); assay: Dengue-2 NS5 methyltransferase inhibitors, primary screen, biochemical, confirmation dose response (AID 588689); format: functional
[2] = molecular target: T1, Polyadenylate-binding protein 1; assay: PABP1 MLLE–PAM2 interaction inhibitors, dose response, miRNA deadenylation inhibitor project, biochemical, fluorescence polarization, Cy5-PAM2 peptide, secondary (AID 602260); format: functional; conditions: read-out: IC50_Mean
Leucine aminopeptidase = molecular target: T2, Leucine aminopeptidase (Plasmodium falciparum 3D7, UniProt Q8IL11); assay: P. falciparum M17LAP inhibitors, primary screen, biochemical, fluorogenic H-Leu-NHMec substrate, 1536-well (AID 1619); format: functional
T2 sequence (Q8IL11 whole entry): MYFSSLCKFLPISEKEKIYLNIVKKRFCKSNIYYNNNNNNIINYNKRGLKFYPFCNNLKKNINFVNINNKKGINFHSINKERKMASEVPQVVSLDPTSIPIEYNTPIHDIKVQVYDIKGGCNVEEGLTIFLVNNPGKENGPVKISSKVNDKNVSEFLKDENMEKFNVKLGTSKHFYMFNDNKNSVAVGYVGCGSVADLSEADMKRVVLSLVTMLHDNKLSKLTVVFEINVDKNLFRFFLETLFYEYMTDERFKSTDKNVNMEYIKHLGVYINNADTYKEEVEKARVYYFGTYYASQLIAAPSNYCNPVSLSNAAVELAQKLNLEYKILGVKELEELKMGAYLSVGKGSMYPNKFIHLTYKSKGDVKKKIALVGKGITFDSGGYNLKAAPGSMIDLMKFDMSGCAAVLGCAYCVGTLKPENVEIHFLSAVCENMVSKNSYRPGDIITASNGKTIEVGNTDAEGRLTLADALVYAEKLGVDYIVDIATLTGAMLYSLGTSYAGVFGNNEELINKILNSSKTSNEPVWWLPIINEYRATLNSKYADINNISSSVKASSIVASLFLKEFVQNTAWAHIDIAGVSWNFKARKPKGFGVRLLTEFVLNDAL

BJ [3] = assay: cytotoxicity toward BJ-TERT-LT-ST fibroblasts, dose response, cell-based, RAS-independent, luminescence (AID 1935); format: functional; conditions: Homo sapiens;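 note: BJ fibroblasts immortalized with TERT plus LT and ST oncogenes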
BJ [4] = assay: cytotoxicity toward BJ-TERT fibroblasts, dose response, cell-based, RAS-independent, luminescence (AID 1933); format: functional; conditions: Homo sapiens
BJ [5] = assay: cells; format: functional, cell-based; conditions: Homo sapiens
[6] = cytotoxicity toward DRD oncogenic fibroblasts, dose response, cell-based, non-viral oncogenic, luminescence (AID 1934); format: functional; conditions: Homo sapiens
[7] = molecular target: T3, Carboxy-terminal domain RNA polymerase II polypeptide A small phosphatase 1 (Homo sapiens, UniProt Q9GZU7); assay: inhibitors of CTDSP1, concentration-response testing, biochemical assay, absorbance-based, actives from ultra-high-throughput screening (AID 540297); format: functional
T3 sequence (Q9GZU7 whole entry): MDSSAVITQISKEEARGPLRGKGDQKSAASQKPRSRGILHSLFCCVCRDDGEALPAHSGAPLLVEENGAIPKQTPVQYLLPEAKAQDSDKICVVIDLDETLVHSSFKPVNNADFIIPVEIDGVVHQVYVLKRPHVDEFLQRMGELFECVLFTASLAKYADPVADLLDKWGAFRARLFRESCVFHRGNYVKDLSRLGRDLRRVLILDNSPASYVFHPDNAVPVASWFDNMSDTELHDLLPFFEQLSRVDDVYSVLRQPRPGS

cells = format: functional
[8] = molecular target: Induced myeloid leukemia cell differentiation protein Mcl-1 (Homo sapiens, UniProt Q07820); format: functional
[9] = molecular target: T4, Replicative DNA helicase DnaB (Mycobacterium tuberculosis, UniProt P9WMR3); assay: DnaB intein splicing inhibitors, dose response, biochemical, cell-free fluorescence (AID 449749); format: functional
T4 sequence (P9WMR3 whole entry): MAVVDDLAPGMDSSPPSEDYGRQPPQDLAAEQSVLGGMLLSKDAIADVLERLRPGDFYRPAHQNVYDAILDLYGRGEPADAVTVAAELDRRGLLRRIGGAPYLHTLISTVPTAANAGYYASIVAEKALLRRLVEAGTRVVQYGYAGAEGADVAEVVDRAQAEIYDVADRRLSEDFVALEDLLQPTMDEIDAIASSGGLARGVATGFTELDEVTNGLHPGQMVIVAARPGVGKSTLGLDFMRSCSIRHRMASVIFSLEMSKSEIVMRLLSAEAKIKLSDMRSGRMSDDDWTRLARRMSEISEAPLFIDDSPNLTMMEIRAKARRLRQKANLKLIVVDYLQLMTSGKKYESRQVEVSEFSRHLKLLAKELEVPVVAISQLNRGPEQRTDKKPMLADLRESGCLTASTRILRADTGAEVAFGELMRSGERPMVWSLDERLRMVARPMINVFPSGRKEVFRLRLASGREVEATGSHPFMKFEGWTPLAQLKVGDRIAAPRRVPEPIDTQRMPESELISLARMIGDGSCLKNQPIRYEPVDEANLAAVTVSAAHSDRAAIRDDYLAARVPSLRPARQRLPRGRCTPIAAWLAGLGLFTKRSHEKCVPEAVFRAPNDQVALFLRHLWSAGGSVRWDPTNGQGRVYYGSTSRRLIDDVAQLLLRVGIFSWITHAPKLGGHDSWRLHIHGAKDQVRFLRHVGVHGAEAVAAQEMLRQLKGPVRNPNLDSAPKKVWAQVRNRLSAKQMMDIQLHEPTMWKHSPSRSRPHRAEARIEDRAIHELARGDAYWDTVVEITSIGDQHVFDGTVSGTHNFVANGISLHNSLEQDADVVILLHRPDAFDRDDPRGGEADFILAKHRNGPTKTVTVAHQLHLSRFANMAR

Protein RecA = molecular target: T5, Protein RecA (Mycobacterium tuberculosis, UniProt P9WHJ3); assay: Fluorescence Cell-Free Homogeneous Dose Retest to Identify Inhibitors of RecA-Intein Splicing Activity. [Related pubchem assays (depositor defined):AID2097, AID2223, AID489010, AID492950]; format: functional
T5 sequence (P9WHJ3 whole entry): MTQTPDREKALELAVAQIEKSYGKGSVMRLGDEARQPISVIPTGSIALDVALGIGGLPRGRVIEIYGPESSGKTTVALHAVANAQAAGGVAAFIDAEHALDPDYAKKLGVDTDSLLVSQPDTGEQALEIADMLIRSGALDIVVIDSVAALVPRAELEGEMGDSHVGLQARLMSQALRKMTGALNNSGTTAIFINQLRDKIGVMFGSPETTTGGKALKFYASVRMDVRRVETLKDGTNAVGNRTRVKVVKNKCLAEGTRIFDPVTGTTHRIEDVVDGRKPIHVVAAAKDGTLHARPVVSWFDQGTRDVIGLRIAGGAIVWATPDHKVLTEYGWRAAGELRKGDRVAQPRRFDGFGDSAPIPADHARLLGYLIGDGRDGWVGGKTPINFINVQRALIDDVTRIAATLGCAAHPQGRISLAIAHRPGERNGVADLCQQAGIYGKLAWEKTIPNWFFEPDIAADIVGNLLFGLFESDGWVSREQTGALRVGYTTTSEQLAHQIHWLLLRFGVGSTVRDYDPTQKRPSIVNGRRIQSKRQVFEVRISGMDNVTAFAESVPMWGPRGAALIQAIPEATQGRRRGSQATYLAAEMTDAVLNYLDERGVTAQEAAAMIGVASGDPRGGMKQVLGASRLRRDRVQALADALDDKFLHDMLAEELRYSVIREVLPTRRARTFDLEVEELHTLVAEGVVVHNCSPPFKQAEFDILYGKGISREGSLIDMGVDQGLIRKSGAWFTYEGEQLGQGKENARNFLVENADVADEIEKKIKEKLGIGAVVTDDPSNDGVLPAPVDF

[10] = molecular target: T6, Ubiquitin-conjugating enzyme E2 N (Homo sapiens, UniProt P61088); format: functional;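 note: Dose-response confirmation in a TR-FRET assay detecting UBC13-driven polyubiquitin chain formation, inhibition measured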
T6 sequence (P61088 whole entry): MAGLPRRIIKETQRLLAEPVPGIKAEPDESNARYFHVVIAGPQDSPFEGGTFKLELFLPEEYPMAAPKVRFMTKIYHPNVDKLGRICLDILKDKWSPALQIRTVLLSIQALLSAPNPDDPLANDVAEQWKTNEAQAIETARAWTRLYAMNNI

[11] = molecular target: T7, DNA repair protein RAD52 homolog (Homo sapiens, UniProt P43351); format: functional, biochemical
T7 sequence (P43351 whole entry): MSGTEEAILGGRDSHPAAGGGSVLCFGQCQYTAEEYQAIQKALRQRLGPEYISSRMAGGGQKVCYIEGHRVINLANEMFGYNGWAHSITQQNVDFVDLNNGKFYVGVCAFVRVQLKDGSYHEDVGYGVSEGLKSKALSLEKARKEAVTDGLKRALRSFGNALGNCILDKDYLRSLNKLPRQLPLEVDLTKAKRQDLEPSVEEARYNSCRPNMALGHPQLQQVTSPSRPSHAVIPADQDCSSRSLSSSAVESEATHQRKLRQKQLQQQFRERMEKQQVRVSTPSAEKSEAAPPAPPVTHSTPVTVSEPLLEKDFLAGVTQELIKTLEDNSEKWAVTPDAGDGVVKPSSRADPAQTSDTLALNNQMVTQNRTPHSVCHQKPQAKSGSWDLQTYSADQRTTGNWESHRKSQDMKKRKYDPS

[12] = molecular target: T8, Zinc finger protein mex-5 (Caenorhabditis elegans, UniProt Q9XUB2); assay: MEX-5/TCR-2 RNA interaction inhibitors, dose response, biochemical, C. elegans, fluorescence polarization (AID 1960)
T8 sequence (Q9XUB2 whole entry): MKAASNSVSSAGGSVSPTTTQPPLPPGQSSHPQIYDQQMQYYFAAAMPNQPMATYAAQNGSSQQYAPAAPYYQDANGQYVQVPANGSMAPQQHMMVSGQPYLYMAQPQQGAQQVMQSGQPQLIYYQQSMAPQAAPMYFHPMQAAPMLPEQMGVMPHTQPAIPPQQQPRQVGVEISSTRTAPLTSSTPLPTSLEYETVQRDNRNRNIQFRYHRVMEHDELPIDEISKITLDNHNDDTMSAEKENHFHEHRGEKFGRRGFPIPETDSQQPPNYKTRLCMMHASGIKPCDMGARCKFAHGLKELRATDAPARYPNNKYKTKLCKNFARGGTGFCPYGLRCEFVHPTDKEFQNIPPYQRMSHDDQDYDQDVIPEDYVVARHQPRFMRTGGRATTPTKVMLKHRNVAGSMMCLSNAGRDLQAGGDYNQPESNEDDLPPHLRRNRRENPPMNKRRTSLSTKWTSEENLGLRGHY

[13] = molecular target: T9, RNA-binding protein pos-1 (Caenorhabditis elegans, UniProt G5EF15); assay: inhibitors of POS-1/mex-3 RNA binding, dose response, biochemical, fluorescence polarization (AID 1964);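 note: purified POS-1 fused to maltose binding protein made in E. coli; potency of compounds blocking POS-1 binding to fluorescent RNA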
T9 sequence (G5EF15 whole entry): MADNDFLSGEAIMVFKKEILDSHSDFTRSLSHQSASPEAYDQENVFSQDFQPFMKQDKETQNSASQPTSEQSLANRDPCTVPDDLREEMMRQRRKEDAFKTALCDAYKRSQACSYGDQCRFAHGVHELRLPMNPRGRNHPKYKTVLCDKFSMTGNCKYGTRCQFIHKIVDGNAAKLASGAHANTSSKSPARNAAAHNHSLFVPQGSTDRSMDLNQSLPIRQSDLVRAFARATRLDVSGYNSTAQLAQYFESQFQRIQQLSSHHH

Sequence of Large T antigen (P03070 whole entry): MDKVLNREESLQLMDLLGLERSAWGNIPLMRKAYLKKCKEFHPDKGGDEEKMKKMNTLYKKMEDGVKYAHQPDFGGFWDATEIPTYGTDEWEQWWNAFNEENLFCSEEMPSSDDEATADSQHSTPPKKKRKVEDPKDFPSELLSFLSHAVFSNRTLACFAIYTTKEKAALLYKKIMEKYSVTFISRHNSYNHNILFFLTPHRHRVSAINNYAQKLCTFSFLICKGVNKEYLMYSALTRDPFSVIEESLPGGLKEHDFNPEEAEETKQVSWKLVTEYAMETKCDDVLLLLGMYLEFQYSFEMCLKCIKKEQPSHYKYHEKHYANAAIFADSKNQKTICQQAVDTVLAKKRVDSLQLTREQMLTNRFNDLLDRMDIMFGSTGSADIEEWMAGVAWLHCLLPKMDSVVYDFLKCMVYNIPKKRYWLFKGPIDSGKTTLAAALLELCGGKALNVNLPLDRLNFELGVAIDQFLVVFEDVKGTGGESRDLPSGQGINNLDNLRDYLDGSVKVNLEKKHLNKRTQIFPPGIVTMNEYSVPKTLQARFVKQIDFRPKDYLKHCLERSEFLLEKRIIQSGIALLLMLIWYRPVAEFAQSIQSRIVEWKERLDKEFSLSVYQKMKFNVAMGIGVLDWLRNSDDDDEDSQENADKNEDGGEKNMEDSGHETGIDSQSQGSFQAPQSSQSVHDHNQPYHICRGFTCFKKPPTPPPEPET
Sequence of Genome polyprotein (P29990 2492-3391 limits assumed): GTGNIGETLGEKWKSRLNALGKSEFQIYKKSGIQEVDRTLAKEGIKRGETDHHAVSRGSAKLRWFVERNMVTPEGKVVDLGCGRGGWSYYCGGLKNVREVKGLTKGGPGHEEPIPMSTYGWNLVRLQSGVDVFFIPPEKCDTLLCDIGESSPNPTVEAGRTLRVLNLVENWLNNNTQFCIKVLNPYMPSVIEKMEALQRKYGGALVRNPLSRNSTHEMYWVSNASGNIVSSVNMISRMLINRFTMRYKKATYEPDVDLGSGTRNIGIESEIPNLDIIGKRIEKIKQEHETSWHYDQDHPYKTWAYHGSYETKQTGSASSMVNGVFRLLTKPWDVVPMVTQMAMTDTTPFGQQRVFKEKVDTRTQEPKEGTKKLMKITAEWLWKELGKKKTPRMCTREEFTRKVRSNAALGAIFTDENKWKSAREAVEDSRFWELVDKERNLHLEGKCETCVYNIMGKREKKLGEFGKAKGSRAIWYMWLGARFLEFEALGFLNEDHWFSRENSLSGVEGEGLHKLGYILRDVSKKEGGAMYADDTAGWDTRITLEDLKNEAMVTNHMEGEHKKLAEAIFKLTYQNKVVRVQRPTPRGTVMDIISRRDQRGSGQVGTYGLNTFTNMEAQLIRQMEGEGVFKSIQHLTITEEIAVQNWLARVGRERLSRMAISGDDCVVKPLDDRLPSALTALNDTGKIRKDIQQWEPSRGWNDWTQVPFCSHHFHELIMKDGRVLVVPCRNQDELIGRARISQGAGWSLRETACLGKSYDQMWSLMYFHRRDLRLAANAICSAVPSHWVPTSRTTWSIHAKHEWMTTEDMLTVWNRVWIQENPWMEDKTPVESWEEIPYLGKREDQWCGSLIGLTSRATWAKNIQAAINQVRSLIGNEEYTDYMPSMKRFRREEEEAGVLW
T1 sequence (P11940 whole entry): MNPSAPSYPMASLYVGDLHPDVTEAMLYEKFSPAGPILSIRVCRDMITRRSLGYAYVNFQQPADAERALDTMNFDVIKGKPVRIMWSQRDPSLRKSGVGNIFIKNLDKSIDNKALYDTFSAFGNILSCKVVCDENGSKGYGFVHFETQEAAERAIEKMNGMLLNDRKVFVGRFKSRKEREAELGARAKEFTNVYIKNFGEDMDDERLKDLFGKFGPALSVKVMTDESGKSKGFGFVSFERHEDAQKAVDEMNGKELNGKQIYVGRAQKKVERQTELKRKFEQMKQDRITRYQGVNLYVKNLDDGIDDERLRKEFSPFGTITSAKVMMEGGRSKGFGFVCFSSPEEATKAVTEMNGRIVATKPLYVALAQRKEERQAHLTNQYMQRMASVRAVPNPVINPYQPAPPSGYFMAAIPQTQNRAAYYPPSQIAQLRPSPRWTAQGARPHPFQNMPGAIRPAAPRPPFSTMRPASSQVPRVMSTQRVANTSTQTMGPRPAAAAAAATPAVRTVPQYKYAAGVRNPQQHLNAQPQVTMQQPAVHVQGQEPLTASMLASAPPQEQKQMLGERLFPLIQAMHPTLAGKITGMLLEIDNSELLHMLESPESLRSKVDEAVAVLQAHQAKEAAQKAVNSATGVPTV
Sequence of Induced myeloid leukemia cell differentiation protein Mcl-1 (Q07820 whole entry): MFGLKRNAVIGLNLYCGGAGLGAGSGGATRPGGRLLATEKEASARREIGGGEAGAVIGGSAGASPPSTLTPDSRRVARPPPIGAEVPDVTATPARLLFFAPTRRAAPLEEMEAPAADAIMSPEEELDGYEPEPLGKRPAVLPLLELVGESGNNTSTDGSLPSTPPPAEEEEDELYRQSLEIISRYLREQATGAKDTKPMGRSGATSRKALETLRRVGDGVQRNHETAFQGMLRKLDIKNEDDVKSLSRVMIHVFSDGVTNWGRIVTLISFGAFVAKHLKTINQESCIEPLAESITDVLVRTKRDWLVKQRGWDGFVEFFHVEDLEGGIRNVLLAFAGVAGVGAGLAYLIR

SMILES: CN(C)c1ccc(C=C2C(=O)NC(=S)NC2=O)cc1[N+](=O)[O-]
- IC50 (Large T antigen): 73.7 µM (active)
- IC50 [1]: > 66 µM (inactive)
- IC50 (Genome polyprotein): 12.8 µM (active)
- IC50 [2]: > 66 µM (inactive)
- IC50 (Leucine aminopeptidase): 76.6 µM (active)

SMILES: CCOc1ccccc1CNS(=O)(=O)c1ccc(-c2cnc(C3CC3)o2)cc1
- EC50 (BJ [3]): 703 nM (inconclusive)
- EC50 (BJ [4]): 535 nM (inconclusive)
- EC50 (BJ [5]): 46.3 µM (active)
- EC50 [6]: 19.7 µM (inconclusive)

SMILES: O=C(Cn1c(=O)oc2cc(S(=O)(=O)N3CCCCCC3)ccc21)NC1CCCCCCC1
- IC50 [7]: 9.64 µM (active)

SMILES: CCOc1ccc(/C=N/OCC(=O)Nc2ccc3c(c2)OCO3)cc1
- IC50 (cells): 18.1 µM (active)

SMILES: CC[C@H](C)NC(=O)c1ccc(Cn2c(=S)[nH]c3c([nH]c4ccc(OC)cc43)c2=O)cc1
- IC50 [7]: 4.67 µM (active)
- IC50 [8]: 5.25 µM (active)

SMILES: CCc1ccc(N2C(=O)C(Cl)=C(N3CCOCC3)C2=O)cc1
- AC50 [9]: 6.99 µM (active)
- EC50 (Protein RecA): 340 nM (active)
- IC50 (Genome polyprotein): 45.1 µM (active)

SMILES: COc1ccc(N2C(=O)NC(=O)/C(=C\c3ccccc3[N+](=O)[O-])C2=O)cc1
- IC50 (Genome polyprotein): 32 µM (active)

SMILES: Cc1ccc(-c2[nH]nc3c2C(c2cccnc2)C(C#N)=C(N)O3)cc1 (stereo not given)
- AC50 [9]: 5.17 µM (active)
- EC50 (Protein RecA): 1300 nM (active)
- IC50 (Leucine aminopeptidase): 25.8 µM (active)

SMILES: COc1cc(/C=C2\C(=N)N3N=C(S(C)(=O)=O)SC3=NC2=O)ccc1OS(=O)(=O)c1ccc(C)cc1
- IC50 [7]: 3.81 µM (active)
- IC50 (Large T antigen): 64.6 µM (active)

SMILES: COc1cc(C(=O)Nc2ccc3ccccc3c2)cc(OC)c1OC
- EC50 (BJ [3]): 1440 nM (active)
- EC50 (BJ [4]): 3200 nM (active)
- EC50 (BJ [5]): > 150 µM (not active)
- EC50 [6]: 1.33 µM (active)

SMILES: CCC(=O)N1CCN(c2cc3c(cc2F)c(=O)c(C(=O)O)cn3CC)CC1
- IC50 (cells): 6.76 µM (active)

SMILES: CCC(C)[C@H](N)c1cn([C@@H](Cc2cc3ccccc3[nH]2)C(=O)N2CCNCC2)nn1 (stereo not given in full)
- IC50 [10]: > 20 µM (inactive)
- AC50 [11]: 8.23 µM (active)

SMILES: COc1ccccc1NC(=O)CSc1sc2c(O)cc(=O)[nH]c2c1C#N
- IC50 [7]: 6.42 µM (active)

SMILES: Nc1ccc2[nH]c(CCCO)nc2c1
- EC50 [12]: 4.35 µM (inconclusive)
- IC50 (Large T antigen): 21.2 µM (active)
- AC50 [11]: 8.48 µM (active)
- EC50 [13]: 36.7 µM (active)

SMILES: CC1(C)OC(c2ccccc2)=C/C(=C\C=N\NC(=O)c2ccncc2)O1
- IC50 (cells): 1.06 µM (active)
